Target: bovine cerebral TPK1 (Bos taurus, UniProt A0A059UE90)
Experiment: Inhibitory activity against P-GS1 phosphorylation by bovine cerebral TPK1
Type: biochemical
Details: P-GS1 substrate, 41.7 μM [γ-32P] ATP, 25° C., 2 hours
Description: Experiment 1: Inhibitory Activity of the Medicament of the Present Invention Against P-GS1 Phosphorylation by Bovine Cerebral TPK1
A mixture containing 100 mM MES-sodium hydroxide (pH 6.5), 1 mM magnesium acetate, 0.5 mM EGTA, 5 mM β-mercaptoethanol, 0.02% Tween 20, 10% glycerol, 12 μg/ml P-GS1, 41.7 μM [γ^−32P] ATP (68 kBq/ml), bovine cerebral TPK1 and a compound shown in Table (a final mixture contained 1.7% DMSO deriving from a solution of a test compound prepared in the presence of 10% DMSO) was used as a reaction system. The phosphorylation was started by adding ATP, and the reaction was conducted at 25° C. for 2 hours, and then stopped by adding 21% perchloric acid on ice cooling. The reaction mixture was centrifuged at 12,000 rpm for 5 minutes and adsorbed on P81 paper (Whatmann), and then the paper was washed four times with 75 mM phosphoric acid, three times with water and once with acetone. The paper was dried, and the residual radioactivity was measured using a liquid scintillation counter.

Chain of bovine cerebral TPK1 (A0A059UE90 1-419): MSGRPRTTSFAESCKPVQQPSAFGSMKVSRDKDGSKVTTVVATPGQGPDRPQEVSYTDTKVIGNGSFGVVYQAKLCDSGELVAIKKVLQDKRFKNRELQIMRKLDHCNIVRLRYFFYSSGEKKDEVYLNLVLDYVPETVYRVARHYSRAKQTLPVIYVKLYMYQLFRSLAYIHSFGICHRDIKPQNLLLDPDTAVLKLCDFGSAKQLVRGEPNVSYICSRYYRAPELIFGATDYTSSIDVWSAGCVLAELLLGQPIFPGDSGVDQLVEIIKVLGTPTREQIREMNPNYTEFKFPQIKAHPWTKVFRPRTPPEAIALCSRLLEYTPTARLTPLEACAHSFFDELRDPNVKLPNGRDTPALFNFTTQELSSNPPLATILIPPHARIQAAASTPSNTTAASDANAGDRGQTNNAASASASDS

Structure (SMILES)	IC50
Cn1c(N2CCO[C@@H](c3ccc(F)cc3)C2)nc(-c2ncncc2F)cc1=O [Compound 1, (S)-5′-fluoro-2-[2-(4-fluoro-phenyl)-morpholin-4-yl]-1-methyl-1H-[4,4′]bipyrimidinyl-6-one]	15.5 nM
Cn1c(N2CCNC(c3ccc(C#N)cc3)C2)nc(-c2ncncc2F)cc1=O (centres unmarked) [Compound 6, 4-[4-(5′-Fluoro-1-methyl-6-oxo-1,6-dihydro-[4,4′]bipyrimidinyl-2-yl)-piperazin-2yl]-benzonitrile]	10.1 nM

Reference: US8940738B2, “Pyrimidone compounds” (Mitsubishi Tanabe Pharma Corporation, priority 2009, dated 2015)
